In patent publication US20070010671A1, “Novel quinazoline derivatives and methods of treatment related to the use thereof” (priority 2003, published 2007):

The molecules below were run against MCH receptor (Homo sapiens, UniProt Q99705) (assay: High throughput functional screening FLIPR/FDSS6000: inhibition of MCH-evoked intracellular Ca2+ changes). Conditions: class by percent of control at 10^-7 M or IC50.
Type: cell-based
Procedure, shortened: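 In a kinetic calcium-flux format, compounds were tested at various concentrations against 50 nM MCH. Fluo4-loaded cells expressing a constitutively active, non-endogenous receptor were imaged at 488/530 nm for 290 s after agonist addition.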

| Molecule | class |
| --- | --- |
| COc1ccccc1NC(=O)NC[C@H]1CC[C@@H](Nc2nc(N(C)C)c3ccccc3n2)CC1 [compound 446, N-[(cis-4-{[4-(dimethylamino)quinazolin-2-yl]amino}cyclohexyl)methyl]-N′-(2-methoxyphenyl)urea] | 2 (Class 2: The value of percent of control at 10^−7 M was from 40% to 60% or the value of IC50 was from 50 nM to 200 nM.) |
| CN(C)c1nc(N[C@H]2CC[C@@H](CNC(=S)Nc3ccc(C(F)(F)F)cc3)CC2)nc2ccccc12 [compound 655] | 3 (Class 3: The value of percent of control at 10^−7 M was more than 60% or the value of IC50 was more than 200 nM.) |
| N-(3,5-difluorobenzyl)-N′-[(cis-4-{[4-(dimethylamino)quinazolin-2-yl]amino}cyclohexyl)methyl]urea [compound 524] | 1 (Class 1: The value of percent of control at 10^−7 M was less than 40% or the value of IC50 was less than 50 nM.) |
| CN(C)c1nc(N[C@H]2CC[C@@H](CNC(=O)Nc3ccc4ccccc4c3)CC2)nc2ccccc12 [compound 511] | 3 (Class 3: The value of percent of control at 10^−7 M was more than 60% or the value of IC50 was more than 200 nM.) |
| CN(C)c1nc(N[C@H]2CC[C@@H](NC(=S)Nc3ccc(Br)cc3C(F)(F)F)CC2)nc2ccccc12 [compound 268, N-[4-bromo-2-(trifluoromethyl)phenyl]-N′-(cis-4-{[4-(dimethylamino)quinazolin-2-yl]amino}cyclohexyl)thiourea] | 1 (Class 1: The value of percent of control at 10^−7 M was less than 40% or the value of IC50 was less than 50 nM.) |
| CSc1ccc(NC(=O)NC[C@H]2CC[C@@H](Nc3nc(N(C)C)c4ccccc4n3)CC2)cc1 [compound 448, N-[(cis-4-{[4-(dimethylamino)quinazolin-2-yl]amino}cyclohexyl)methyl]-N′-[4-(methylthio)phenyl]urea] | 1 (Class 1: The value of percent of control at 10^−7 M was less than 40% or the value of IC50 was less than 50 nM.) |
| Cc1cc([N+](=O)[O-])ccc1NC(=S)NC[C@H]1CC[C@@H](Nc2nc(N(C)C)c3ccccc3n2)CC1 [compound 726] | 3 (Class 3: The value of percent of control at 10^−7 M was more than 60% or the value of IC50 was more than 200 nM.) |
| CN(C)c1nc(N[C@H]2CC[C@@H](CNC(=O)Nc3cccc(C#N)c3)CC2)nc2ccccc12 [compound 418, N-(3-cyanophenyl)-N′-[(cis-4-{[4-(dimethylamino)quinazolin-2-yl]amino}cyclohexyl)methyl]urea] | 2 (Class 2: The value of percent of control at 10^−7 M was from 40% to 60% or the value of IC50 was from 50 nM to 200 nM.) |
| CN(C)c1nc(N[C@H]2CC[C@@H](NC(=S)Nc3cc(Cl)cc(Cl)c3)CC2)nc2ccccc12 [compound 223] | 3 (Class 3: The value of percent of control at 10^−7 M was more than 60% or the value of IC50 was more than 200 nM.) |
| CN(C)c1nc(N[C@H]2CC[C@@H](CNC(=O)Nc3cccc4ccccc34)CC2)nc2ccccc12 [compound 450, N-[(cis-4-{[4-(dimethylamino)quinazolin-2-yl]amino}cyclohexyl)methyl]-N′-1-naphthylurea] | 2 (Class 2: The value of percent of control at 10^−7 M was from 40% to 60% or the value of IC50 was from 50 nM to 200 nM.) |
| Cc1cc(C)c(NC(=O)NC[C@H]2CC[C@@H](Nc3nc(N(C)C)c4ccccc4n3)CC2)c(C)c1 [compound 458, N-[(cis-4-{[4-(dimethylamino)quinazolin-2-yl]amino}cyclohexyl)methyl]-N′-mesitylurea] | 1 (Class 1: The value of percent of control at 10^−7 M was less than 40% or the value of IC50 was less than 50 nM.) |
| COC(=O)c1cc(NC(=O)NC[C@H]2CC[C@@H](Nc3nc(N(C)C)c4ccccc4n3)CC2)cc(C(=O)OC)c1 [compound 751] | 3 (Class 3: The value of percent of control at 10^−7 M was more than 60% or the value of IC50 was more than 200 nM.) |
| CN(C)c1nc(N[C@H]2CC[C@@H](NC(=S)Nc3ccc(Oc4ccccc4)cc3)CC2)nc2ccccc12 [compound 323] | 3 (Class 3: The value of percent of control at 10^−7 M was more than 60% or the value of IC50 was more than 200 nM.) |
| CN(C)c1nc(N[C@H]2CC[C@@H](CNC(=S)Nc3ccc([N+](=O)[O-])cc3Cl)CC2)nc2ccccc12 [compound 638] | 3 (Class 3: The value of percent of control at 10^−7 M was more than 60% or the value of IC50 was more than 200 nM.) |
| CN(C)c1nc(N[C@H]2CC[C@@H](NC(=O)NCCc3cccs3)CC2)nc2ccccc12 [compound 337, N-(cis-4-{[4-(dimethylamino)quinazolin-2-yl]amino}cyclohexyl)-N′-[2-(2-thienyl)ethyl]urea] | 2 (Class 2: The value of percent of control at 10^−7 M was from 40% to 60% or the value of IC50 was from 50 nM to 200 nM.) |
| COc1cc(NC(=S)N[C@H]2CC[C@@H](Nc3nc(N(C)C)c4ccccc4n3)CC2)cc(OC)c1 [compound 259] | 2 (Class 2: The value of percent of control at 10^−7 M was from 40% to 60% or the value of IC50 was from 50 nM to 200 nM.) |
| CN(C)c1nc(N[C@H]2CC[C@@H](CNC(=O)Nc3cc(C(F)(F)F)cc(C(F)(F)F)c3)CC2)nc2ccccc12 [compound 409] | 3 (Class 3: The value of percent of control at 10^−7 M was more than 60% or the value of IC50 was more than 200 nM.) |

Same assay, conditions: class by percent of control at 10^-7 M or by IC50; read-out: class

| Molecule | IC50 |
| --- | --- |
| CN(C)c1nc(N[C@H]2CC[C@@H](NC(=O)Nc3ccccc3F)CC2)nc2ccccc12 [compound 38] | > 200 nM |
| Cc1cc(NC(=O)N[C@H]2CC[C@@H](Nc3nc(N(C)C)c4ccccc4n3)CC2)c([N+](=O)[O-])cc1C [compound 138] | > 200 nM |
| COc1ccc(NC(=O)N[C@H]2CC[C@@H](Nc3nc(N(C)C)c4ccccc4n3)CC2)cc1Cl [compound 131, N-(3-chloro-4-methoxyphenyl)-N′-(cis-4-{[4-(dimethylamino)quinazolin-2-yl]amino}cyclohexyl)urea] | < 50 nM |
| CC(C)c1ccc(NC(=O)N[C@H]2CC[C@@H](Nc3nc(N(C)C)c4ccccc4n3)CC2)cc1 [compound 39] | > 200 nM |
| CN(C)c1nc(N[C@H]2CC[C@@H](NC(=S)Nc3ccc([N+](=O)[O-])cc3)CC2)nc2ccccc12 [compound 189] | 50 to 200 nM |
| CN(C)c1nc(N[C@H]2CC[C@@H](CNC(=S)Nc3cccc4nsnc34)CC2)nc2ccccc12 [compound 815] | > 200 nM |
| CN(C)c1nc(N[C@H]2CC[C@@H](NC(=O)Nc3ccccc3OC(F)(F)F)CC2)nc2ccccc12 [compound 152] | > 200 nM |
| Cc1cccc(C(C)(C)C)c1NC(=O)N[C@H]1CC[C@@H](Nc2nc(N(C)C)c3ccccc3n2)CC1 [compound 116, N-(2-tert-butyl-6-methylphenyl)-N′-(cis-4-{[4-(dimethylamino)quinazolin-2-yl]amino}cyclohexyl)urea] | < 50 nM |
| CCc1cccc(NC(=O)N[C@H]2CC[C@@H](Nc3nc(N(C)C)c4ccccc4n3)CC2)c1 [compound 132, N-(cis-4-{[4-(dimethylamino)quinazolin-2-yl]amino}cyclohexyl)-N′-(3-ethylphenyl)urea] | 50 to 200 nM |
| COC(=O)[C@H](Cc1ccccc1)NC(=O)N[C@H]1CC[C@@H](Nc2nc(N(C)C)c3ccccc3n2)CC1 (relative stereo) [compound 62, methyl N-{[(cis-4-{[4-(dimethylamino)quinazolin-2-yl]amino}cyclohexyl)amino]carbonyl}phenylalaninate] | < 50 nM |
| CNC(=S)N[C@H]1CC[C@@H](Nc2nc(N(C)C)c3ccccc3n2)CC1 [compound 186] | > 200 nM |
| CN(C)c1nc(N[C@H]2CC[C@@H](CNC(=S)Nc3ccc(N4CCOCC4)nc3)CC2)nc2ccccc12 [compound 820] | > 200 nM |
| CCCCNC(=O)N[C@H]1CC[C@@H](Nc2nc(N(C)C)c3ccccc3n2)CC1 [compound 13, N-butyl-N′-(cis-4-{[4-(dimethylamino)quinazolin-2-yl]amino}cyclohexyl)urea] | < 50 nM |
| COC(=O)c1ccccc1NC(=O)N[C@H]1CC[C@@H](Nc2nc(N(C)C)c3ccccc3n2)CC1 [compound 70, metyl 2-({[4(cis-4-{[-(dimethylamino)quinazolin-2-yl]amino}cyclohexyl)amino]carbonyl}amino)benzoate] | > 200 nM |

Same assay, conditions: class by percent of control at 10^−7 M or by IC50; read-out: class

| Molecule | IC50 |
| --- | --- |
| CN(C)c1nc(N[C@H]2CC[C@@H](CNC(=O)c3c(Cl)cc(Cl)cc3Cl)C2)nc2ccccc12 [Example 1123, 2,4,6-trichloro-N-[((1R,3S)-3-{[4-(dimethylamino)quinazolin-2-yl]amino}cyclopentyl)methyl]benzamide] | < 50 nM |
| CCOc1ccccc1NC(=O)NC[C@H]1CC[C@@H](Nc2nc(N(C)C)c3ccccc3n2)CC1 [Example 1016, N-[(cis-4-{[4-(dimethylamino)quinazolin-2-yl]amino}cyclohexyl)methyl]-N′-(2-ethoxyphenyl)urea] | 50 to 200 nM |
| CN(C)c1nc(N[C@H]2CC[C@@H](NC(=O)c3ccc(Oc4ccccc4Cl)nc3)CC2)nc2ccccc12 [Example 1051, 6-(2-chlorophenoxy)-N-(cis-4-{[4-(dimethylamino)quinazolin-2-yl]amino}cyclohexyl)nicotinamide] | > 200 nM |
| COc1cc(OC)cc(Oc2ccc(C(=O)N[C@H]3CC[C@@H](Nc4nc(N(C)C)c5ccccc5n4)CC3)cn2)c1 [Example 1071, 6-(3,5-dimethoxyphenoxy)-N-(cis-4-{[4-(dimethylamino)quinazolin-2-yl]amino}cyclohexyl)nicotinamide] | 50 to 200 nM |
| COc1cc(CNC(=O)[C@H]2CC[C@@H](Nc3nc(N(C)C)c4cc(F)c(F)cc4n3)CC2)cc(OC)c1 [Example 993, cis-N-(3,5-dimethoxybenzyl)-4-{[4-(dimethylamino)-6,7-difluoroquinazolin-2-yl]amino}cyclohexanecarboxamide] | 50 to 200 nM |
| CN(C)c1nc(N[C@H]2CC[C@@H](CNC(=O)c3cccc(Cl)c3)C2)nc2ccccc12 [Example 1122, 3-chloro-N-[((1R,3S)-3-{[4-(dimethylamino)quinazolin-2-yl]amino}cyclopentyl)methyl]benzamide] | < 50 nM |
